Literature values in PubChem BioAssay AID1259409 (Chemical Carcinogenesis Research Information System (CCRIS), 2018).

Test system: rodent chemically induced tumor inhibition, incidence and multiplicity
Assay: CCRIS tumor inhibitor studies

In the case of `N#CSCc1ccccc1`, the “tumour outcome (control, treated, inhibition, significance)” value (Carcinogen: 7,12-DIMETHYLBENZ[A]ANTHRACENE, 57-97-6, Dose [Inhibitor]: 0, 25 PPM IN DIET BEGINNING 2 WK PRIOR TO CARCINOGEN DOSE AND CONTINUING FOR 1 WK POST CARCINOGEN DOSE (STUDY DURATION:, Route [Inhibitor]: ORAL, Species: RAT, Strain/Sex: SPRAGUE-DAWLEY/FEMALE, Target Tissue: Type of Lesion: MAMMARY GLAND: TUMOR, Dose [Carcinogen]: 10 MG IN 1 ML OLIVE OIL ONCE AT 7 WK OF AGE, Promoter: NONE USED) is given as 19/21 (91%), 19/21 (91%), 0%, the “tumour outcome (control, treated, inhibition, significance)” value (Carcinogen: 7,12-DIMETHYLBENZ[A]ANTHRACENE, 57-97-6, Dose [Inhibitor]: 0.03 NMOL/G DIET DAILY FOR 17 WK STARTING 1 WK PRIOR TO CARCINOGEN TREATMENT AND CONTINUING THROUGH THE END OF THE STUDY, Route [Inhibitor]: ORAL, Species: RAT, Strain/Sex: SPRAGUE-DAWLEY/FEMALE, Target Tissue: Type of Lesion: MAMMARY GLAND: TUMOR, Dose [Carcinogen]: 12 MG IN 1 ML OLIVE OIL ONCE, Promoter: NONE USED) is given as 79%, 8%, 90%, p<0.001 and the “tumour outcome (control, treated, inhibition, significance)” value (Carcinogen: 7,12-DIMETHYLBENZ[A]ANTHRACENE, 57-97-6, Dose [Inhibitor]: 5.0 MG/G DIET AT AGE 9 WK SIMULTANEOUSLY WITH CARCINOGEN, 3/WK FOR 4 WK (STUDY DURATION: 20 WK), Route [Inhibitor]: ORAL, Species: MOUSE, Strain/Sex: ICR/FEMALE, Target Tissue: Type of Lesion: FORESTOMACH: TUMOR, Dose [Carcinogen]: 0.05 MG/G DIET AT AGE 9 WK, 3/WK FOR 4 WK, Promoter: NONE USED) is given as 87%, 80%, 8%, not significant. For the same compound, the “tumour outcome (control, treated, inhibition, significance)” value (Carcinogen: 7,12-DIMETHYLBENZ[A]ANTHRACENE, 57-97-6, Dose [Inhibitor]: 50 MG ONCE 2 HR BEFORE DMBA TREATMENT (STUDY DURATION: 18 WK), Route [Inhibitor]: INTRAGASTRIC, Species: RAT, Strain/Sex: SPRAGUE-DAWLEY/FEMALE, Target Tissue: Type of Lesion: MAMMARY GLAND: TUMOR, Dose [Carcinogen]: 12 MG IN 1 ML OLIVE OIL AT AGE 7 WK 2 HR AFTER AGENT TREATMENT, Promoter: NONE USED) was 77%, 55%, 28%, not significant, the “tumour outcome (control, treated, inhibition, significance)” value (Carcinogen: 7,12-DIMETHYLBENZ[A]ANTHRACENE, 57-97-6, Dose [Inhibitor]: 50 MG ONCE 4 HR BEFORE DMBA TREATMENT (STUDY DURATION: 18 WK), Route [Inhibitor]: INTRAGASTRIC, Species: RAT, Strain/Sex: SPRAGUE-DAWLEY/FEMALE, Target Tissue: Type of Lesion: MAMMARY GLAND: TUMOR, Dose [Carcinogen]: 12 MG IN 1 ML OLIVE OIL AT AGE 7 WK 4 HR AFTER AGENT TREATMENT, Promoter: NONE USED) was 100%, 36%, 64%, p<0.001 and the “tumour outcome (control, treated, inhibition, significance)” value (Carcinogen: BENZO[A]PYRENE, 50-32-8, Dose [Inhibitor]: 0, 0.045 UMOL/G DIET BEGINNING 1 WK PRIOR TO CARCINOGEN TREATMENT AND CONTINUING FOR 1 WK POST CARCINOGEN TREATMENT FOLL, Route [Inhibitor]: ORAL, Species: MOUSE, Strain/Sex: CD-1/FEMALE, Target Tissue: Type of Lesion: FORESTOMACH: PAPILLOMA, Dose [Carcinogen]: 1 MG IN 0.2 ML CORN OIL 2/WK FOR 4 WK, Promoter: NONE USED) was 85%, 84%, 1%, not significant. The “tumour outcome (control, treated, inhibition, significance)” value (Carcinogen: DIETHYLNITROSAMINE, 55-18-5, Dose [Inhibitor]: 0, 100 PPM IN DIET FOR DURATION OF STUDY BEGINNING 1 WK PRIOR TO CARCINOGEN DOSE (STUDY DURATION: 53 WK), Route [Inhibitor]: ORAL, Species: RAT, Strain/Sex: ACI/MALE, Target Tissue: Type of Lesion: LIVER: HEPATOCELLULAR ADENOMA, Dose [Carcinogen]: 200 MG/KG BW ONCE, Promoter: NONE USED) was 10/18 (55%), 6/16 (38%), 31%, not significant, the “tumour outcome (control, treated, inhibition, significance)” value (Carcinogen: DIETHYLNITROSAMINE, 55-18-5, Dose [Inhibitor]: 0, 100 PPM IN DIET FOR DURATION OF STUDY BEGINNING 1 WK PRIOR TO CARCINOGEN DOSE (STUDY DURATION: 53 WK), Route [Inhibitor]: ORAL, Species: RAT, Strain/Sex: ACI/MALE, Target Tissue: Type of Lesion: LIVER: HEPATOCELLULAR CARCINOMA, Dose [Carcinogen]: 200 MG/KG BW ONCE, Promoter: NONE USED) was 6/18 (33%), 2/16 (13%), 61%, not significant and the “tumour outcome (control, treated, inhibition, significance)” value (Carcinogen: METHYLAZOXYMETHANOL ACETATE, 592-62-1, Dose [Inhibitor]: 0, 100 PPM IN DIET FOR 4 WK BEGINNING 1 WK PRIOR TO CARCINOGEN TREATMENT (STUDY DURATION: 49 WK), Route [Inhibitor]: ORAL, Species: RAT, Strain/Sex: ACI/FEMALE, Target Tissue: Type of Lesion: COLON: CARCINOMA, Dose [Carcinogen]: 25 MG/KG BW 1/WK FOR 3 WK, Promoter: NONE USED) was 11/18 (61%), 10/12 (83%), -36%, not significant. For the same compound, the “tumour outcome (control, treated, inhibition, significance)” value (Carcinogen: METHYLAZOXYMETHANOL ACETATE, 592-62-1, Dose [Inhibitor]: 0, 100 PPM IN DIET FOR 4 WK BEGINNING 1 WK PRIOR TO CARCINOGEN TREATMENT (STUDY DURATION: 49 WK), Route [Inhibitor]: ORAL, Species: RAT, Strain/Sex: ACI/FEMALE, Target Tissue: Type of Lesion: SMALL INTESTINE: ADENOMA OR CARCINOMA, Dose [Carcinogen]: 25 MG/KG BW 1/WK FOR 3 WK, Promoter: NONE USED) was 11/18 (61%), 8/12 (67%), -10%, not significant, the “tumour outcome (control, treated, inhibition, significance)” value (Carcinogen: METHYLAZOXYMETHANOL ACETATE, 592-62-1, Dose [Inhibitor]: 0, 100 PPM IN DIET FOR 46 WK BEGINNING 1 WK POST CARCINOGEN TREATMENT (STUDY DURATION: 49 WK), Route [Inhibitor]: ORAL, Species: RAT, Strain/Sex: ACI/FEMALE, Target Tissue: Type of Lesion: COLON: ADENOMA OR CARCINOMA, Dose [Carcinogen]: 25 MG/KG BW 1/WK FOR 3 WK, Promoter: NONE USED) was 15/18 (83%), 18/19 (95%), -14%, not significant and the “tumour outcome (control, treated, inhibition, significance)” value (Carcinogen: METHYLAZOXYMETHANOL ACETATE, 592-62-1, Dose [Inhibitor]: 0, 100 PPM IN DIET FOR 46 WK BEGINNING 1 WK POST CARCINOGEN TREATMENT (STUDY DURATION: 49 WK), Route [Inhibitor]: ORAL, Species: RAT, Strain/Sex: ACI/FEMALE, Target Tissue: Type of Lesion: SMALL INTESTINE: ADENOMA OR CARCINOMA, Dose [Carcinogen]: 25 MG/KG BW 1/WK FOR 3 WK, Promoter: NONE USED) was 11/18 (61%), 8/19 (42%), 31%, not significant. The “tumour outcome (control, treated, inhibition, significance)” value (Carcinogen: METHYLAZOXYMETHANOL ACETATE, 592-62-1, Dose [Inhibitor]: 0, 400 PPM IN DIET FOR 4 WK BEGINNING 1 WK PRIOR TO CARCINOGEN TREATMENT (STUDY DURATION: 49 WK), Route [Inhibitor]: ORAL, Species: RAT, Strain/Sex: ACI/FEMALE, Target Tissue: Type of Lesion: COLON: ADENOMA OR CARCINOMA, Dose [Carcinogen]: 25 MG/KG BW 1/WK FOR 3 WK, Promoter: NONE USED) was 15/18 (83%), 17/21 (81%), 2%, not significant, the “tumour outcome (control, treated, inhibition, significance)” value (Carcinogen: METHYLAZOXYMETHANOL ACETATE, 592-62-1, Dose [Inhibitor]: 0, 400 PPM IN DIET FOR 4 WK BEGINNING 1 WK PRIOR TO CARCINOGEN TREATMENT (STUDY DURATION: 49 WK), Route [Inhibitor]: ORAL, Species: RAT, Strain/Sex: ACI/FEMALE, Target Tissue: Type of Lesion: SMALL INTESTINE: CARCINOMA, Dose [Carcinogen]: 25 MG/KG BW 1/WK FOR 3 WK, Promoter: NONE USED) was 10/18 (56%), 1/21 (5%), 91%, not calculated and the “tumour outcome (control, treated, inhibition, significance)” value (Carcinogen: METHYLAZOXYMETHANOL ACETATE, 592-62-1, Dose [Inhibitor]: 0, 400 PPM IN DIET FOR 46 WK BEGINNING 1 WK POST CARCINOGEN TREATMENT (STUDY DURATION: 49 WK), Route [Inhibitor]: ORAL, Species: RAT, Strain/Sex: ACI/FEMALE, Target Tissue: Type of Lesion: COLON: ADENOMA OR CARCINOMA, Dose [Carcinogen]: 25 MG/KG BW 1/WK FOR 3 WK, Promoter: NONE USED) was 15/18 (83%), 13/18 (72%), 13%, not significant. The “tumour outcome (control, treated, inhibition, significance)” value (Carcinogen: METHYLAZOXYMETHANOL ACETATE, 592-62-1, Dose [Inhibitor]: 0, 400 PPM IN DIET FOR 46 WK BEGINNING 1 WK POST CARCINOGEN TREATMENT (STUDY DURATION: 49 WK), Route [Inhibitor]: ORAL, Species: RAT, Strain/Sex: ACI/FEMALE, Target Tissue: Type of Lesion: SMALL INTESTINE: ADENOMA OR CARCINOMA, Dose [Carcinogen]: 25 MG/KG BW 1/WK FOR 3 WK, Promoter: NONE USED) was 11/18 (61%), 3/18 (17%), 72%, p<0.01.
In the case of `CCCCC/C=C\C/C=C\CCCCCCCC(=O)O`, the “tumour outcome (control, treated, inhibition, significance)” value (Carcinogen: BENZO[A]PYRENE, 50-32-8, Dose [Inhibitor]: 0, 0.1 ML IN 0.1 ML OLIVE OIL 4 AND 2 D PRIOR TO CARCINOGEN DOSE (CYCLE REPEATED 4 X) (STUDY DURATION: 23 WK), Route [Inhibitor]: GAVAGE, Species: MOUSE, Strain/Sex: ICR/FEMALE, Target Tissue: Type of Lesion: STOMACH: PAPILLOMA, Dose [Carcinogen]: 2 MG IN 0.2 ML OLIVE OIL 1/WK FOR 4 WK) is listed as 100%, 90%, 10%, not calculated.
In the case of `N[C@@H](Cc1ccc(O)cn1)C(=O)O`, the “tumour outcome (control, treated, inhibition, significance)” value (Carcinogen: 7,12-DIMETHYLBENZ[A]ANTHRACENE, 57-97-6, Dose [Inhibitor]: 0, 2 MG IN 50% ETHANOL 1/3 D BEGINNING 2 D POST CARCINOGEN TREATMENT (STUDY DURATION: 30 WK), Route [Inhibitor]: DERMAL, Species: MOUSE, Strain/Sex: TRANSGENIC/MALE, FEMALE, Target Tissue: Type of Lesion: SKIN: PAPILLOMA, Dose [Carcinogen]: 5 MG/KG/BW ONCE, Promoter: NONE USED) is listed as 100%, 45%, 55%, not calculated and the “tumour outcome (control, treated, inhibition, significance)” value (Carcinogen: METHYLNITROSOUREA, 684-93-5, Dose [Inhibitor]: 0, 2 MG/MOUSE 1/2 D FOR 12 WK BEGINNING 1 D POST CARCINOGEN TREATMENT (STUDY DURATION: 12 WK), Route [Inhibitor]: INTRAPERITONEAL, Species: MOUSE, Strain/Sex: TRANSGENIC/MALE, FEMALE, Target Tissue: Type of Lesion: FORESTOMACH: PAPILLOMA, Dose [Carcinogen]: 50 MG/KG IN 10 MILLIMOLAR CITRATE BUFFER, Promoter: NONE USED) is listed as 100%, 0%, 100%, not calculated.
